The term IC50 denotes the midpoint of a concentration-inhibition curve.

The structures appear in SMILES notation.

Among the data in ChEMBL document CHEMBL3785050, “Synthesis, biological evaluation and molecular docking studies of 2-piperazin-1-yl-quinazolines as platelet aggregation inhibitors and ligands of integrin αIIbβ3” (Bioorg Med Chem Lett, 2016) are IC50 values, retold here.

The nature of assay [1]: Antiplatelet activity in human platelet rich plasma assessed as inhibition of ADP-induced platelet aggregation by Born's method. In kind it is functional.
In assay [2] the target is Integrin alpha-IIb/beta-3 (Homo sapiens, UniProt P05106+P08514). The assay can be described thus: Inhibition of FITC-labelled fibrinogen binding to integrin alpha2b beta3 receptor in human platelet cells. In kind it is cell-based.
Chain of Integrin alpha-IIb/beta-3 (P05106 27-788 limits assumed): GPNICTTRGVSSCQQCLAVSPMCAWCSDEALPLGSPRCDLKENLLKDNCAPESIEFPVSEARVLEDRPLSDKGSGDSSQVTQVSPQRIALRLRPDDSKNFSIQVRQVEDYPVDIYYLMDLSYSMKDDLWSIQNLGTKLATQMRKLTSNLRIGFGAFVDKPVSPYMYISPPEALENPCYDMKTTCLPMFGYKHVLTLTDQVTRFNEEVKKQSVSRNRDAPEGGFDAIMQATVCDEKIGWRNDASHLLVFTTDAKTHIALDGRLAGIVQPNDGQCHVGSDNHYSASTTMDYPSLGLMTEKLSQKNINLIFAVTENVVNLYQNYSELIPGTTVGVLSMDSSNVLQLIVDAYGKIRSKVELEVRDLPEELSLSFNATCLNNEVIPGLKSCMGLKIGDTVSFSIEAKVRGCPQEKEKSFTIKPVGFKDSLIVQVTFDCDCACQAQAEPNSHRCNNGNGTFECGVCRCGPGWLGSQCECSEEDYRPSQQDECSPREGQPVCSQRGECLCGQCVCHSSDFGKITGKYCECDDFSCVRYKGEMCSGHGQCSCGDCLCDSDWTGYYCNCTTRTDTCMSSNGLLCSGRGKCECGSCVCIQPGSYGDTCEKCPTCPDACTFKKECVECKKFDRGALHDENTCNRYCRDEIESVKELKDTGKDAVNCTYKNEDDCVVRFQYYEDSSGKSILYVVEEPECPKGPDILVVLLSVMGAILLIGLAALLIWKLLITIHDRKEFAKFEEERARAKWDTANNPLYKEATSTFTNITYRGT
Chain of Integrin alpha-IIb/beta-3 (P08514 32-887 limits assumed): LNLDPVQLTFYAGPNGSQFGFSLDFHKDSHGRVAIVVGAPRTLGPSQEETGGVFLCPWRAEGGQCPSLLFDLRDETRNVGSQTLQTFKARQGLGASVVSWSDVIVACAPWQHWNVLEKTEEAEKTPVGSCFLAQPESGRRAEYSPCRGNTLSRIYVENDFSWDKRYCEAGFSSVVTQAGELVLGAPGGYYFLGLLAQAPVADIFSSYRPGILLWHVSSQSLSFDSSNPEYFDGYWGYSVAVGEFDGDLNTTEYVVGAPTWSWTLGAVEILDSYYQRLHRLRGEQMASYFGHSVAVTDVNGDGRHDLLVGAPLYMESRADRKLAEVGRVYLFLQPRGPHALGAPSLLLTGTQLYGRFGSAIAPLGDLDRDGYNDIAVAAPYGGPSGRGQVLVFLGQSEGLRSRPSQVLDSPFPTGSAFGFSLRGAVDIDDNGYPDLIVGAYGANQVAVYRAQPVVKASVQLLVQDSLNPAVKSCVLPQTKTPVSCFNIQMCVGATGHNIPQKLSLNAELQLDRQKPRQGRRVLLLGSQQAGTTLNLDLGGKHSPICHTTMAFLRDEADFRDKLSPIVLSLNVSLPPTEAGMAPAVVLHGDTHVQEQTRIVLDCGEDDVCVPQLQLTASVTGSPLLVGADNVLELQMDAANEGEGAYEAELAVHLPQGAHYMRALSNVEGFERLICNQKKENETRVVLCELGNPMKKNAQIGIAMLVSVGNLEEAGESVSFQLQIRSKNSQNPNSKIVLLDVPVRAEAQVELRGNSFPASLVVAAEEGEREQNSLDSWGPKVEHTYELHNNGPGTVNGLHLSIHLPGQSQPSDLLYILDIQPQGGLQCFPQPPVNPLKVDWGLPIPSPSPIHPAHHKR
Chain of Integrin alpha-IIb/beta-3 (P08514 891-1039 limits assumed): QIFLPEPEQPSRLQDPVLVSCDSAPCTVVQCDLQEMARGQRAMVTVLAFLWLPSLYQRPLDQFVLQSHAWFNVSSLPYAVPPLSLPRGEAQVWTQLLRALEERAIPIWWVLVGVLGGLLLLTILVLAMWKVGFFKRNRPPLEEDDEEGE

`NCCCCC(=O)Nc1ccc2nc(N3CCNCC3)nc(-c3ccccc3)c2c1`: the IC50 in assay [1] is 48 µM.
With `NC[C@H](NC(=O)OCc1ccccc1)C(=O)Nc1ccc2nc(N3CCNCC3)[nH]c(=O)c2c1`, the IC50 in assay [1] amounted to 0.019 µM; in assay [2], 0.00153 µM.
In the case of `CCOC(=O)N[C@@H](CN)C(=O)Nc1ccc2nc(N3CCNCC3)[nH]c(=O)c2c1`, the IC50 in assay [1] came out at 0.06 µM.
On the same count and under the same terms, with `NCCCC(=O)Nc1ccc2nc(N3CCNCC3)nc(-c3ccccc3)c2c1` the figure was 0.049 µM; with `NCCC(=O)Nc1ccc2nc(N3CCNCC3)nc(-c3ccccc3)c2c1`, 0.57 µM.
With `CC(C)COC(=O)N[C@@H](CN)C(=O)Nc1ccc2nc(N3CCNCC3)[nH]c(=O)c2c1`, the figures for the IC50 in assay [1] and in assay [2] were 0.04 µM and 0.0018 µM, respectively.
Taken in the same sequence, the figures for `NCC[C@H](NC(=O)OCc1ccccc1)C(=O)Nc1ccc2nc(N3CCNCC3)[nH]c(=O)c2c1` were 0.01 µM and 0.00157 µM.
Take `O=C(Nc1ccc2nc(N3CCNCC3)[nH]c(=O)c2c1)c1ccc(C2CCNCC2)cc1`: in assay [1], the IC50 was 0.57 µM.
Same read-out and setting: with `NCCCCCC(=O)Nc1ccc2nc(N3CCNCC3)nc(-c3ccccc3)c2c1` the figure was 58 µM.
Take `NCc1ccc(C(=O)Nc2ccc3nc(N4CCNCC4)[nH]c(=O)c3c2)cc1`: the 50% inhibitory concentration (IC50) in assay [1] stood at 1.9 µM.
Still for that read-out and setting: to `NCCCCCC(=O)Nc1ccc2nc(N3CCNCC3)[nH]c(=O)c2c1` belongs 1.3 µM.
Still for that read-out and setting: to `CCCCS(=O)(=O)N[C@@H](Cc1ccc(OCCCCC2CCNCC2)cc1)C(=O)O` [TIROFIBAN] belongs 0.03 µM.
Turning to `CCC(=O)Nc1ccc2nc(N3CCNCC3)[nH]c(=O)c2c1`, the IC50 in assay [1] worked out at 0.17 µM; in assay [2], 0.055 µM.
As to `CCC(=O)Nc1ccc2nc(N3CCNCC3)nc(-c3ccccc3)c2c1`, in assay [1], the IC50 amounted to 0.72 µM.
With `NCCCCC(=O)Nc1ccc2nc(N3CCNCC3)[nH]c(=O)c2c1`, the IC50 in assay [1] worked out at 1.4 µM.
For the molecule `O=C(Nc1ccc2nc(N3CCNCC3)[nH]c(=O)c2c1)c1ccc(N2CCNCC2)cc1`, the IC50 in assay [1] turned out to be 1.3 µM; in assay [2], 0.02 µM.
